Assay results: ChEMBL document CHEMBL3621149, “Cytotoxic labdane-type diterpenes from Hedychium longipetalum inhibiting production of nitric oxide” (Bioorg Med Chem Lett, 2015)
In brackets after ≈: the same amount, converted by molar mass. Peptide text beside a SMILES is read from it. * marks the point of attachment. Cbz = O=C(OCc1ccccc1)*

Tests used:
Format in all cases: functional, cell-based
[1] = Cytotoxicity against human SGC7901 cells after 48 hrs by SRB assay; conditions: SGC-7901, 48 h
HeLa = test: Cytotoxicity against human HeLa cells after 48 hrs by SRB assay
RAW264.7 = test: Inhibition of LPS and IFN-gamma-stimulated nitric oxide production in mouse RAW264.7 cells after 18 hrs by Griess method; conditions: RAW264.7, 18 h

IC50 (RAW264.7) [µg/mL] | SMILES | IC50 [1] [µg/mL] | IC50 (HeLa) [µg/mL]
7.5 (≈ 22.8 µM) | CC1(C)CCC[C@]2(C)[C@@H]3C(=CC(=O)[C@@H]12)CO[C@H]3C(=O)c1ccoc1 | > 25 | > 25
5.58 (≈ 16.8 µM) | C=C1[C@@H](O)[C@@H](O)[C@H]2C(C)(C)CCC[C@]2(C)[C@H]1/C=C/C1=CCOC1=O | > 25 | > 25
6.1 (≈ 17.5 µM) | C=C1C[C@@H](O)[C@H]2C(C)(C)CCC[C@]2(C)[C@H]1C/C=C1/CC(OC)OC1=O (stereo partly specified) | 8.74 (≈ 25.1 µM) | 11.3 (≈ 32.5 µM)
6.52 (≈ 20.6 µM) | C=C1[C@@H](O)C[C@H]2C(C)(C)CCC[C@]2(C)[C@H]1/C=C/C1=CCOC1=O | 14.5 (≈ 45.9 µM) | 14.8 (≈ 46.9 µM)
2.77 (≈ 8.33 µM) | C=C1[C@@H](O)C[C@H]2C(C)(C)CCC[C@]2(C)[C@H]1/C=C/C1=CC(=O)OC1O (stereo partly specified) [HEDYFORRESTIN C] | 7.29 (≈ 21.9 µM) | 9.21 (≈ 27.7 µM)
0.08 (≈ 0.168 µM) | CC(C)C[C@@H](C=O)NC(=O)[C@H](CC(C)C)NC(=O)[C@H](CC(C)C)NC(=O)OCc1ccccc1 [MG-132] (Cbz-Leu-Leu-Leu-aldehyde) |  | 
 | CC(=O)O[C@H]1C(=O)[C@@]2(C)[C@H]([C@H](OC(=O)c3ccccc3)[C@]3(O)C[C@H](OC(=O)[C@H](O)[C@@H](NC(=O)c4ccccc4)c4ccccc4)C(C)=C1C3(C)C)[C@]1(OC(C)=O)CO[C@@H]1C[C@@H]2O [PACLITAXEL] | 0.2 (≈ 0.234 µM) | 0.1 (≈ 0.117 µM)
0.56 (≈ 1.86 µM) | C=C1C[C@@H](O)[C@H]2C(C)(C)CCC[C@]2(C)[C@H]1/C=C/c1ccoc1 [YUNNACORONARIN A] | 6.21 (≈ 20.7 µM) | 6.58 (≈ 21.9 µM)
